Measured values reported in US12421260B2, “Neurokinin-1 antagonist” (SHANGHAI SHENGDI PHARMACEUTICAL CO., LTD, priority 2019, dated 2025).
Values after ≈ are worked out from the molar mass of the structure shown. Where two headings read alike, the source gives them in different places. Blank lines part the entries; values can stand above or below the compound they belong to.

Experiments:
[1] = Water solubility (Test Example 1); format: physicochemical; conditions: aqueous buffer, thermodynamic from solid
Method: 1.1. Preparation of Reagents
The 100 mL strength reagents were prepared as follows:
pH=3.0: phosphate buffer solution: 100 ml of 20 mmol/L NaH2PO4, 0.1M H3PO4, adjusting pH to 3.0.
pH=4.0: phosphate buffer solution: 100 ml of 20 mmol/L NaH2PO4, 0.1M H3PO4, adjusting pH to 4.0. […]
An appropriate amount of test compound was accurately weighed. The solution was added at a small amount each time for several times and stirred until the compound was dissolved, and the content of the compound in the solution was determined.

[2] = Chemical stability of the compounds (Test Example 1); format: physicochemical; conditions: purity loss after placing for 7 days; 4° C. and room temperature
Method: 2.1 Test of Stability of the Compounds
About 1 mg of sample was weighed into a vial, then the vial was placed in a vacuum bag and the bag was vacuumized. Then the bag was put into a container containing color-changing silica gel and sealed. Two parallel samples were prepared. Enough samples were prepared according to the sampling time point and placed at 4° C. and room temperature respectively.

[3] = Metabolism in plasma of mouse (Test Example 4); format: in vitro ADME; parameters: unit not given here
Method: (§1) 5 μL of the 16 μM working solution of the compound of Example 5 was added to 75 μL plasma at a final concentration of 1 μM. The samples were incubated in a 37° C. water bath for 0, 15, 30, 60, 90, 120 and 180 min. After completion of the incubation, 240 μL of internal standard containing acetonitrile was added into the samples which was then shaken on a shaker at 800 rpm for 10 min and centrifuged at 3700 rpm at 4° C. for 20 min. The supernatant was analyzed by LC-MS, and the injection volume was 2 μL.
(§2) The metabolism of the compounds of Example 1, Example 2 and Example 8 in the plasma of mouse, rat and human was determined by referring to the test method in Test Example 2.

[4] = Metabolism in plasma of rat (Test Example 4); format: in vitro ADME; parameters: unit not given here
Method: as §1, §2

[5] = Metabolism in human plasma (Test Example 4); format: in vitro ADME; parameters: plasma concentration of the compounds of the examples: unit not given here
Method: as §1, §2

[6] = In vivo pharmacokinetic test in rats (Test Example 5); conditions: plasma, rat, intravenous bolus 2 mg/kg
Method: Rats were used as the test animals. The plasma drug concentration at different time points after administration of the compounds of Example 1 and Example 2 by injection was determined using LC/MS/MS method. The in vivo pharmacokinetic of the compounds in rats was studied, and the pharmacokinetic characteristics were evaluated.
A certain amount of the compounds of Example 1 and Example 2 were weighed and prepared into a pH=4.0 solution by using 20 mmol/L sodium dihydrogen phosphate for later use.
The drug was administered by intravenous bolus injection with an injection time of about 5 min, administration dose of 2 mg/kg, administration concentration of 0.4 mg/ml and administration volume of 5 ml/kg.
(§3) Blood was collected from the orbital vein before administration and 5 min, 0.25 h, 0.5 h, 1 h, 2 h, 4 h, 6 h, 8 h, 10 h, 24 h and 48 h after administration. About 0.6 mL was collected for each sample which was subject to anticoagulation using heparin sodium and placed on ice immediately after collection. The blood samples were placed in labeled centrifuge tubes after collection, and plasma was separated by centrifugation (centrifugation conditions: centrifugal force 2200 g, centrifugation at 2-8° C. for 10 min).

[7] = Plasma stability test, conversion in fresh human plasma (Test Example 2); format: in vitro ADME; conditions: for Compound of Example 5 concentration in plasma: human plasma, 37° C.
Method: The compound of Example 5 and the compound of formula I.
Human fresh plasma was donated by volunteers with informed consent.
1.3 Preparation of Solution of the Compound
A certain amount of the compound of Example 5 was weighed and DMSO was added to prepare a 30 mM stock solution. A certain volume of the stock solution was diluted with DMSO to prepare solution I at a concentration of 1600 μM. Then a certain volume of the 1600 μM solution I was diluted with 45% methanol to prepare working solution II at a concentration of 16 μM. The 30 mM stock solution and the 1600 μM solution […] for the compound of formula I were also prepared by the above method.
as §1
1.5 Preparation of Standard Curve
The previously 1600 μM solution I was diluted with acetonitrile to prepare the standard curve working solution with concentrations of 160, 400, 1600, 4000, 8000, 16000 and 32000 ng/mL. The concentration of QC working solution was 480, 1920 and 25600 ng/mL. 5 μL of the standard curve working solution and QC working solution were added to 75 μL plasma to obtain the standard curve samples with final concentrations of 10, 25, 100, 250, 500, 1000 and 2000 ng/mL and QC samples with final concentrations of 30, 120 and 1600 ng/mL. 240 μL of acetocyano containing the internal standard was then added into the samples quickly, which was then shaken in a shaker at 800 rpm for 10 min and centrifuged at 3700 rpm at 4° C. for 20 min. The supernatant was collected and analyzed by LC-MS, and the injection volume was 2 μL.
The standard curve of the compound of formula I and QC sample were prepared by the above method.

[8] = Pharmacokinetic test in cynomolgus monkeys, Example 5 (Test Example 6); format: in vivo; conditions: for AUC(0-t) / Cmax / Tmax: cynomolgus monkey, iv 2 mg/kg Example 5
Method: Cynomolgus monkeys were used as the test animals. The plasma drug concentration at different time points after iv administration of the compound of Example 5 by injection was determined using LC/MS/MS method. The in vivo pharmacokinetic of the compound of the present invention in cynomolgus monkeys was studied, and the pharmacokinetic characteristics were evaluated.
A certain amount of the compound of Example 5 was weighed and prepared into a pH=4.0 solution by using 20 mmol/L sodium dihydrogen phosphate for later use.
The drug was administered by intravenous with injection time of about 30 min, administration dose of 2 mg/kg, administration concentration of 0.4 mg/ml and administration volume of 5 ml/kg.
as §3, with “the femoral” for “the orbital”, “0.6 ml of” for “0.6 mL”, “each sample,” for “each sample”
The content of the compound of Example 5 and rolapitant in plasma samples was determined by LC/MS/MS.

Red blood cells (RBC) = assay: Hemolytic effect (Test Example 8); format: cell-based, rabbits; conditions: rabbit red blood cell 2% suspension, PBS
Method: Red blood cells (RBC) were collected from the jugular vein or central ear artery of rabbits (10 ml of EDTA whole blood). The blood was put in a conical flask with glass beads and shaken for 10 minutes to remove fibrinogen, resulting in defibrinated blood. About 10 times the amount of sodium chloride solution was added to the defibrinated blood, which was then shaken well and centrifuged at 1500 rpm for 10 minutes. The supernatant was removed and the precipitated red blood cells were washed with sodium chloride injection for 3 times according to the above method, until the supernatant was observed colorless. The obtained red blood cells were prepared into a 2% (v/v) suspension with sodium chloride injection for later use.
The test samples (the compound of Example 5 and the compound of Example 19) were respectively dissolved in PBS (pH 7.4 or pH 5) and filtered to prepare 0.4 mg/ml, 0.8 mg/ml, 1.2 mg/ml, 1.6 mg/ml and 2 mg/ml solutions for later use.
A certain amount of test sample solution was added to the above […] for testing in the supernatant.
The sample should be further observed under a microscope, and if red blood cells can be seen as aggregated, then coagulation has occurred. The hemolytic effect of the compounds of the present disclosure was determined by using this method.

solubility ([1]; PH = 5): 9050 µg/mL (≈ 13.3 mM) | plasma concentration of the compounds of the examples [3]: 91.17 | plasma concentration of the compounds of the examples [4]: 97.70 | plasma concentration of the compounds of the examples [5]: 99.00 | AUC(0-t) ([6]; read-out: AUC0-t of the compound of the example): 41.6 ng·h/mL | AUC(0-inf) ([6]; read-out: AUC0-∞ of the compound of the example): 42.2 ng·h/mL | MRT inf ([6]; read-out: MRT 0-∞ of the compound of the example): 4.38 min | half-life ([6]; read-out: T1/2 of the compound of the example (converted)): 5.22 min
Compound: C[C@@H](OC[C@@]1(c2ccccc2)CC[C@]2(CCC(=O)N2)CN1C(=O)OCCCOP(=O)(O)O)c1cc(C(F)(F)F)cc(C(F)(F)F)c1 [Example 2]
Chemical stability [2]: Good (purity reduced by <0.5% after placing for 7 days) | conversion into rolapitant (in words) [5]: basically no convertion into rolapitant in human plasma, or only a slight conversion

solubility ([1]; phosphate buffer, PH = 4): > 10000 µg/mL | Compound of Example 5 concentration in plasma ([7]; 0 min, 1 μM start): 1 µM | Compound of Example 5 concentration in plasma ([7]; 15 min): 0.53 µM | Compound of Example 5 concentration in plasma ([7]; 30 min): 0.12 µM | Compound of Example 5 concentration in plasma ([7]; 60 min): 0.01 µM | Compound of Example 5 concentration in plasma ([7]; 90 min): 0.00 µM | Compound of Example 5 concentration in plasma ([7]; 120 min): 0.00 µM | Compound of Example 5 concentration in plasma ([7]; 180 min): 0.00 µM | AUC(0-t) ([8]; plasma, analyte Example 5, read-out: AUC0-t): 0.77 ± 0.29 ng·h/mL | Cmax ([8]; plasma, analyte Example 5, read-out: Cmax): 2.28 ± 0.39 ng/mL | Tmax ([8]; plasma, analyte Example 5, read-out: Tmax): 6.6 ± 7.2 min
Compound: CC(C)[C@H](N)C(=O)OCOC(=O)N1C[C@@]2(CCC(=O)N2)CC[C@@]1(CO[C@H](C)c1cc(C(F)(F)F)cc(C(F)(F)F)c1)c1ccccc1 [Example 5]
Chemical stability [2]: Good (purity reduced by <0.5% after placing for 7 days) | in vivo transformation into rolapitant (in words) ([8]; cynomolgus monkeys, iv 2 mg/kg): most of the compound were rapidly transformed into the active metabolite rolapitant | concentration with hemolytic effect (Red blood cells (RBC)): ≥ 40000 ng/mL

solubility ([1]; PH = 5): 1370 µg/mL (≈ 2.28 mM) | plasma concentration of the compounds of the examples [3]: 61.67 | plasma concentration of the compounds of the examples [4]: 59.89 | conversion rate into rolapitant [5]: ~46% | plasma concentration of the compounds of the examples [5]: 54.54
Compound: C[C@@H](OC[C@@]1(c2ccccc2)CC[C@]2(CCC(=O)N2C(=O)CCC(=O)O)CN1)c1cc(C(F)(F)F)cc(C(F)(F)F)c1 [Example 8]
Chemical stability [2]: Moderate (purity reduced by 0.5%~2.0% after placing for 7 days)

Compound: C[C@@H](OC[C@@]1(c2ccccc2)CC[C@]2(CCC(=O)N2)CN1C(=O)OCOP(=O)(O)O)c1cc(C(F)(F)F)cc(C(F)(F)F)c1 [Example 19]
concentration with no hemolytic effect (Red blood cells (RBC)): up to 2 mg/ml

Compound of formula 1 concentration formed from Example 5 ([7]; human plasma incubated with 1 μM Example 5, 0 min): 0.00 µM | Compound of formula 1 concentration formed from Example 5 ([7]; human plasma incubated with 1 μM Example 5, 15 min): 0.78 µM | Compound of formula 1 concentration formed from Example 5 ([7]; human plasma incubated with 1 μM Example 5, 30 min): 1.18 µM | Compound of formula 1 concentration formed from Example 5 ([7]; human plasma incubated with 1 μM Example 5, 60 min): 1.22 µM | Compound of formula 1 concentration formed from Example 5 ([7]; human plasma incubated with 1 μM Example 5, 90 min): 1.31 µM | Compound of formula 1 concentration formed from Example 5 ([7]; human plasma incubated with 1 μM Example 5, 120 min): 1.28 µM | Compound of formula 1 concentration formed from Example 5 ([7]; human plasma incubated with 1 μM Example 5, 180 min): 1.02 µM | AUC(0-t) ([8]; analyte rolapitant): 4326.87 ± 1820.65 ng·h/mL | Cmax ([8]; analyte rolapitant): 315.25 ± 97.08 ng/mL | Tmax ([8]; analyte rolapitant): 8.4 ± 6 min
Compound: (5S,8S)-8-[{(1R)-1-(3,5-bis-(trifluoromethyl)phenyl)-ethoxy}-methyl]-8-phenyl-1,7-diazaspiro[4.5]dec-2-one [Rolapitant, reference compound]
